Assay type in all cases: cell-based
One test has as its system Botrtyis cinerea (Bc). The experiment in a line: In vitro pathogen growth inhibition assay, Bc. The following applies: 48 h, ≥90% inhibition; 48 hours vs 2% DMSO control; read-out: Compound Concentration (ppm) sufficient for ≥90% inhibition of growth, Bc. The essentials:
(§1)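 Spores in 17% V8 liquid medium, or 1.5 mm Rs mycelial plugs in ¼ PDB, incubated with compound; final concentration checked by OD600 for precipitation. OD readings at 24 and 48 h, blank-subtracted, plus visual ratings; value is concentration giving ≥90% growth inhibition.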

Test [1] concerns Collectotrichum graminicola (Cg). Kind of test: In vitro pathogen growth inhibition assay, Cg. The following applies: 48 h, ≥90% inhibition; 48 hours vs 2% DMSO control; read-out: Compound Concentration (ppm) sufficient for ≥90% inhibition of growth, Cg. The essentials:
as §1

The subject of another test is Diplodia maydis (Dm). Kind of test: In vitro pathogen growth inhibition assay, Dm. As to conditions: Stenocarpella maydis, 48 h, ≥90% inhibition; 48 hours vs 2% DMSO control; read-out: Compound Concentration (ppm) sufficient for ≥90% inhibition of growth, Dm. The essentials:
as §1

For test [2], the system named is Fusarium moniliforme (Fm). The experiment in a line: In vitro pathogen growth inhibition assay, Fm. As to conditions: Fusarium verticillioides; ≥90% inhibition; 48 hours vs 2% DMSO control; read-out: Compound Concentration (ppm) sufficient for ≥90% inhibition of growth, Fm. An outline of the steps:
as §1

Test [3] deals with Fusarium virguliforme (Fv). Kind of test: In vitro pathogen growth inhibition assay, Fv. The following applies: ≥90% inhibition, 48 hours vs 2% DMSO control, read-out: Compound Concentration (ppm) sufficient for ≥90% inhibition of growth, Fv. An outline of the steps: as §1
The test system of test [4] is Phytophthora capsici (Pc). The experiment in a line: In vitro pathogen growth inhibition assay, Pc. As to conditions: 48 h, ≥90% inhibition, 48 hours vs 2% DMSO control, read-out: Compound Concentration (ppm) sufficient for ≥90% inhibition of growth, Pc. An outline of the steps: as §1
The subject of the next test is Rhizoctonia solani (Rs). The experiment in a line: In vitro pathogen growth inhibition assay, Rs (mycelial plugs). The following applies: Rhizoctonia solani, 48 h, ≥90% inhibition; mycelial plugs; 48 hours vs 2% DMSO control; read-out: Compound Concentration (ppm) sufficient for ≥90% inhibition of growth, Rs. The essentials:
as §1

In a further test the test system is Septoria tritici (St). The experiment in a line: In vitro pathogen growth inhibition assay, St. The following applies: Zymoseptoria tritici, 48 h, ≥90% inhibition; 48 hours vs 2% DMSO control; read-out: Compound Concentration (ppm) sufficient for ≥90% inhibition of growth, St. The essentials: as §1

The values that follow come from patent US10941157B2, “Pesticidal compositions and uses thereof” (Gilead Apollo, LLC, priority 2015, dated 2021).

Converted amounts (≈) assume the structure as drawn.

Consider `COc1ccc(F)cc1[C@H](Cn1c(=O)n([C@H](C)C(=O)NC(C)C)c(=O)c2c(C)c(-n3cccn3)sc21)OC(C)C` [Compound I-127], for which the IC90 in the test with Botrtyis cinerea (Bc) was 2 µg/mL (≈ 3.5 µM); in test [1], 2 µg/mL (≈ 3.5 µM); in the test on Diplodia maydis (Dm), 2 µg/mL (≈ 3.5 µM); in test [2], 0.4 µg/mL (≈ 0.7 µM); in test [3] it was 0.4 µg/mL (≈ 0.7 µM); in test [4], over 50 µg/mL. Moreover, the IC90 is 2 µg/mL (≈ 3.5 µM) in the test on Rhizoctonia solani (Rs) and over 50 µg/mL in the test with Septoria tritici (St).

For the compound `COc1ccc(F)cc1[C@H](Cn1c(=O)n(CC(=O)N2CCCC2)c(=O)c2c(C)c(-n3cccn3)sc21)OC(C)C` [Compound I-128], the IC90 with Botrtyis cinerea (Bc) was 2 µg/mL (≈ 3.51 µM); in test [1] it was 10 µg/mL (≈ 17.6 µM); with Diplodia maydis (Dm), over 10 µg/mL; in test [2], 0.4 µg/mL (≈ 0.702 µM); in test [3], 2 µg/mL (≈ 3.51 µM); in test [4], over 50 µg/mL. Also, the figures for the IC90 in the test with Rhizoctonia solani (Rs) and with Septoria tritici (St) were at least 2 µg/mL and over 50 µg/mL, respectively.

Regarding `COc1ccc(F)cc1[C@H](Cn1c(=O)n(C(C)(C)C(=O)NC(C)C)c(=O)c2c(C)c(-n3cccn3)sc21)OCCO` [Compound I-129], the IC90 in the test with Botrtyis cinerea (Bc) stood at 2 µg/mL (≈ 3.4 µM); in test [1], 2 µg/mL (≈ 3.4 µM); in the test with Diplodia maydis (Dm), 10 µg/mL (≈ 17 µM); in test [2] it was 0.4 µg/mL (≈ 0.681 µM); in test [3] it was 2 µg/mL (≈ 3.4 µM); in test [4], 50 µg/mL (≈ 85.1 µM). Moreover, the IC90 was 2 µg/mL (≈ 3.4 µM) in the test on Rhizoctonia solani (Rs) and over 50 µg/mL with Septoria tritici (St).

For the compound `COc1ccc(F)cc1[C@H](Cn1c(=O)n(C(C)(C)C(=O)N2CCCC2)c(=O)c2c(C)c(-n3nccn3)sc21)OCCO` [Compound I-130], the IC90 in the test with Botrtyis cinerea (Bc) is 2 µg/mL (≈ 3.33 µM); in test [1], 2 µg/mL (≈ 3.33 µM); in the test on Diplodia maydis (Dm), at least 2 µg/mL; in test [2], 0.4 µg/mL (≈ 0.666 µM); in test [3], at least 0.4 µg/mL; in test [4], 50 µg/mL (≈ 83.2 µM). The IC90 was at least 2 µg/mL in the test on Rhizoctonia solani (Rs) and at least 50 µg/mL in the test on Septoria tritici (St).

For `COc1ccc(F)cc1[C@H](Cn1c(=O)n(C(C)(C)C(=O)N(C)C)c(=O)c2c(C)c(-n3nccn3)sc21)OC(C)C` [Compound I-131], the IC90 was 0.4 µg/mL (≈ 0.698 µM) in the test on Botrtyis cinerea (Bc); 10 µg/mL (≈ 17.5 µM) in test [1]; 2 µg/mL (≈ 3.49 µM) in the test on Diplodia maydis (Dm); 0.4 µg/mL (≈ 0.698 µM) in test [2]; 0.4 µg/mL (≈ 0.698 µM) in test [3]; over 50 µg/mL in test [4]. Also, the values for the IC90 with Rhizoctonia solani (Rs) and in the test on Septoria tritici (St) were at least 0.4 µg/mL and over 50 µg/mL, respectively.

With `CNC(=O)C(C)(C)n1c(=O)c2c(C)c(-n3nccn3)sc2n(C[C@H](OC(C)C)c2cc(F)ccc2OC)c1=O` [Compound I-132], the IC90 was 2 µg/mL (≈ 3.58 µM) with Botrtyis cinerea (Bc); at least 2 µg/mL in test [1]; 10 µg/mL (≈ 17.9 µM) with Diplodia maydis (Dm); 0.4 µg/mL (≈ 0.716 µM) in test [2]; 0.4 µg/mL (≈ 0.716 µM) in test [3]; over 50 µg/mL in test [4]. The IC90 with Rhizoctonia solani (Rs) is at least 2 µg/mL; with Septoria tritici (St), over 50 µg/mL.

Consider `COc1ccc(F)cc1[C@H](Cn1c(=O)n(C(C)(C)C(=O)N2CCCC2)c(=O)c2c(C)c(-n3nccn3)sc21)OC[C@H](C)O` [Compound I-133], for which the IC90 came out at 2 µg/mL (≈ 3.25 µM) in the test on Botrtyis cinerea (Bc); 0.4 µg/mL (≈ 0.651 µM) in test [1]; 2 µg/mL (≈ 3.25 µM) with Diplodia maydis (Dm); 0.4 µg/mL (≈ 0.651 µM) in test [2]; 0.4 µg/mL (≈ 0.651 µM) in test [3]; 50 µg/mL (≈ 81.3 µM) in test [4]. Further, the IC90 with Rhizoctonia solani (Rs) is at least 2 µg/mL; with Septoria tritici (St), at least 50 µg/mL.

Turning to `COc1ccc(F)cc1[C@H](Cn1c(=O)n(C(C)(C)C(=O)NC(C)C)c(=O)c2c(C)c(-n3cccn3)sc21)OC[C@@H](C)O` [Compound I-134], the IC90 with Botrtyis cinerea (Bc) was 2 µg/mL (≈ 3.32 µM); in test [1], 0.4 µg/mL (≈ 0.665 µM); with Diplodia maydis (Dm) it was at least 2 µg/mL; in test [2], 0.4 µg/mL (≈ 0.665 µM); in test [3], 2 µg/mL (≈ 3.32 µM); in test [4] it was at least 10 µg/mL. In addition, the IC90 with Rhizoctonia solani (Rs) was at least 0.4 µg/mL; in the test on Septoria tritici (St) it was at least 10 µg/mL.

Regarding `COc1ccc(F)cc1[C@H](Cn1c(=O)n(C(C)(C)C(=O)N2CCCC2)c(=O)c2c(C)c(-n3cccn3)sc21)OC[C@@H](C)O` [Compound I-135], the IC90 with Botrtyis cinerea (Bc) was 2 µg/mL (≈ 3.26 µM); in test [1], 10 µg/mL (≈ 16.3 µM); in the test on Diplodia maydis (Dm), at least 10 µg/mL; in test [2], 0.4 µg/mL (≈ 0.652 µM); in test [3], 2 µg/mL (≈ 3.26 µM); in test [4], over 50 µg/mL. Moreover, the figures for the IC90 in the test on Rhizoctonia solani (Rs) and in the test with Septoria tritici (St) were at least 2 µg/mL and 50 µg/mL (≈ 81.5 µM), respectively.

Consider `COc1ccc(F)cc1[C@H](Cn1c(=O)n(C(C)(C)C(=O)NC(C)C)c(=O)c2c(C)c(-n3cccn3)sc21)OC[C@H](C)O` [Compound I-136], for which the IC90 with Botrtyis cinerea (Bc) is 2 µg/mL (≈ 3.32 µM); in test [1], 10 µg/mL (≈ 16.6 µM); with Diplodia maydis (Dm), at least 10 µg/mL; in test [2], 0.4 µg/mL (≈ 0.665 µM); in test [3], 2 µg/mL (≈ 3.32 µM); in test [4] it was over 50 µg/mL. Moreover, the IC90 in the test with Rhizoctonia solani (Rs) was at least 2 µg/mL; in the test on Septoria tritici (St), over 50 µg/mL.

`COc1ccc(F)cc1[C@H](Cn1c(=O)n(C(C)(C)C(=O)NC(C)C)c(=O)c2c(C)c(-n3cccn3)sc21)OCC(C)(C)O` [Compound I-137]: the IC90 with Botrtyis cinerea (Bc) is 2 µg/mL (≈ 3.25 µM); in test [1] it was 2 µg/mL (≈ 3.25 µM); in the test with Diplodia maydis (Dm), at least 2 µg/mL; in test [2], 0.4 µg/mL (≈ 0.65 µM); in test [3], at least 0.4 µg/mL; in test [4] it was at least 50 µg/mL. For the same compound, the values for the IC90 in the test on Rhizoctonia solani (Rs) and in the test on Septoria tritici (St) were at least 2 µg/mL and at least 10 µg/mL, respectively.

In the case of `COc1ccc(F)cc1[C@H](Cn1c(=O)n(C(C)(C)C(=O)N2CCCC2)c(=O)c2c(C)c(-n3cccn3)sc21)OCC(C)(C)O` [Compound I-138], the IC90 was 10 µg/mL (≈ 15.9 µM) in the test on Botrtyis cinerea (Bc); 10 µg/mL (≈ 15.9 µM) in test [1]; at least 10 µg/mL in the test on Diplodia maydis (Dm); 0.4 µg/mL (≈ 0.637 µM) in test [2]; 10 µg/mL (≈ 15.9 µM) in test [3]; over 50 µg/mL in test [4]. Moreover, the values for the IC90 in the test on Rhizoctonia solani (Rs) and in the test on Septoria tritici (St) were at least 2 µg/mL and over 50 µg/mL, respectively.

For `COCCO[C@@H](Cn1c(=O)n(C(C)C(=O)N2CCCC2)c(=O)c2c(C)c(-n3nccn3)sc21)c1cc(F)ccc1OC` (some centres unmarked) [Compound I-139], the IC90 in the test with Botrtyis cinerea (Bc) is 2 µg/mL (≈ 3.33 µM); in test [1], 10 µg/mL (≈ 16.6 µM); in the test with Diplodia maydis (Dm), 10 µg/mL (≈ 16.6 µM); in test [2] it was 0.4 µg/mL (≈ 0.666 µM); in test [3], 0.4 µg/mL (≈ 0.666 µM); in test [4], 50 µg/mL (≈ 83.2 µM). Besides, the results for the IC90 in the test on Rhizoctonia solani (Rs) and in the test on Septoria tritici (St) were 2 µg/mL (≈ 3.33 µM) and 50 µg/mL (≈ 83.2 µM), respectively.

Consider `COCCO[C@@H](Cn1c(=O)n([C@H](C)C(=O)N2CCCC2)c(=O)c2c(C)c(-n3nccn3)sc21)c1cc(F)ccc1OC` [Compound I-140], for which the IC90 was 2 µg/mL (≈ 3.33 µM) in the test on Botrtyis cinerea (Bc); 10 µg/mL (≈ 16.6 µM) in test [1]; 10 µg/mL (≈ 16.6 µM) with Diplodia maydis (Dm); 0.4 µg/mL (≈ 0.666 µM) in test [2]; 0.4 µg/mL (≈ 0.666 µM) in test [3]; over 50 µg/mL in test [4]. The values for the IC90 in the test on Rhizoctonia solani (Rs) and with Septoria tritici (St) were 2 µg/mL (≈ 3.33 µM) and over 50 µg/mL, respectively.

With `COCCO[C@@H](Cn1c(=O)n(CC(=O)N2CCCC2)c(=O)c2c(C)c(-n3nccn3)sc21)c1cc(F)ccc1OC` [Compound I-141], the IC90 with Botrtyis cinerea (Bc) was 2 µg/mL (≈ 3.41 µM); in test [1] it was at least 2 µg/mL; with Diplodia maydis (Dm) it was 2 µg/mL (≈ 3.41 µM); in test [2], 0.4 µg/mL (≈ 0.682 µM); in test [3] it was at least 2 µg/mL; in test [4], over 50 µg/mL. In addition, the figures for the IC90 in the test with Rhizoctonia solani (Rs) and in the test with Septoria tritici (St) were 10 µg/mL (≈ 17 µM) and over 50 µg/mL, respectively.

Consider `COc1ccc(F)cc1[C@H](Cn1c(=O)n(C(C)(C)C(=O)NC(C)C)c(=O)c2c(C)c(-n3nccn3)sc21)OCCC(N)=O` [Compound I-142], for which the IC90 with Botrtyis cinerea (Bc) was 2 µg/mL (≈ 3.25 µM); in test [1], 10 µg/mL (≈ 16.2 µM); with Diplodia maydis (Dm), 50 µg/mL (≈ 81.2 µM); in test [2], 0.4 µg/mL (≈ 0.65 µM); in test [3] it was 0.4 µg/mL (≈ 0.65 µM); in test [4], at least 50 µg/mL. Further, the IC90 in the test on Rhizoctonia solani (Rs) is 2 µg/mL (≈ 3.25 µM); with Septoria tritici (St), over 50 µg/mL.
